Reference: ChEMBL document CHEMBL4808209 (J Med Chem, 2021)

What was measured:
CYP3A4 = CYP3A4 (Homo sapiens, UniProt P08684); experiment: Inhibition of CYP3A4 in human liver microsomes using midazolam or testosterone as substrate substrate in presence of NADPH by LC-MS/MS analysis; assay type: ADME; conditions: human, liver microsomes, probe midazolam or testosterone
KATO III = experiment: Antitumor activity against human KATO III stomach cancer cell line xenografted in po dosed SCID mouse assessed as tumor growth inhibition administered once daily for 10 days; assay type: functional, organism-based; conditions: dose 0.03-1 mg/kg, time 10.0 day
D(2) dopamine receptor = D(2) dopamine receptor (Homo sapiens, UniProt P14416); experiment: Inhibition of human dopamine D2S receptor at 0.1 to 1 uM; conditions: dose 0.1-1 µM
Mu-type opioid receptor = Mu-type opioid receptor (Homo sapiens, UniProt P35372); experiment: Inhibition of human mu opioid receptor at 0.1 to 1 uM; conditions: dose 0.1-1 µM
[1] = target: Neuropeptide Y receptor type 2 (Homo sapiens, UniProt P49146); experiment: Inhibition of human NPY2 at 0.1 to 1 uM; conditions: dose 0.1-1 µM
[2] = test system: Glutamate [NMDA] receptor; experiment: Inhibition of NMDA receptor (unknown origin) at 0.1 to 1 uM; assay type: protein-complex assay; conditions: human, dose 0.1-1 µM
Thromboxane A2 receptor = Thromboxane A2 receptor (Homo sapiens, UniProt P21731); experiment: Inhibition of human thromboxane A2 at 0.1 to 1 uM; conditions: dose 0.1-1 µM
[3] = Toxicity in SCID mouse xenografted with human KATO III stomach cancer cell line assessed as effect on boy weight at 0.03 to 1 mg/kg, po administered once daily for 10 days; assay type: organism-based; conditions: in vivo, 240 h, dose 0.03-1 mg/kg, time 10 day
Nitric oxide synthase 1 = Nitric oxide synthase 1 (Homo sapiens, UniProt P29475); experiment: Inhibition of NOS (unknown origin) at 0.1 to 1 uM; conditions: dose 0.1-1 µM
[4] = target: 5-hydroxytryptamine receptor 4 (Homo sapiens, UniProt Q13639); experiment: Inhibition of 5HT4 receptor (unknown origin) at 0.1 to 1 uM; conditions: dose 0.1-1 µM
D(1A) dopamine receptor = D(1A) dopamine receptor (Homo sapiens, UniProt P21728); experiment: Inhibition of human dopamine D1 receptor at 0.1 to 1 uM; conditions: dose 0.1-1 µM
[5] = Inhibition of GABA chloride/TBOB site (unknown origin) at 0.1 to 1 uM; conditions: human, dose 0.1-1 µM
[6] = target: Alpha-2C adrenergic receptor (Homo sapiens, UniProt P18825); experiment: Inhibition of human adrenergic alpha 2C receptor at 0.1 to 1 uM; conditions: dose 0.1-1 µM
Substance-P receptor = Substance-P receptor (Homo sapiens, UniProt P25103); experiment: Inhibition of NK-1 (unknown origin) at 0.1 to 1 uM; conditions: dose 0.1-1 µM
[7] = Inhibition of ATP-sensitive potassium channel (unknown origin) at 0.1 to 1 uM; conditions: human, dose 0.1-1 µM
Histamine H3 receptor = Histamine H3 receptor (Homo sapiens, UniProt Q9Y5N1); experiment: Inhibition of histamine H3 receptor (unknown origin) at 0.1 to 1 uM; conditions: dose 0.1-1 µM
[8] = Protein binding in human plasma assessed as free fraction measured after 2 hrs by LC-MS/MS analysis; assay type: ADME, cell-free
GABA-B receptor = GABA-B receptor (Homo sapiens, UniProt Q9UBS5+O75899); experiment: Inhibition of GABA-B receptor (unknown origin) at 0.1 to 1 uM; assay type: protein-complex assay; conditions: dose 0.1-1 µM
CYP2D6 = CYP2D6 (Homo sapiens, UniProt P10635); experiment: Inhibition of CYP2D6 in human liver microsomes using bufuralol as substrate substrate in presence of NADPH by LC-MS/MS analysis; assay type: ADME; conditions: human, liver microsomes, probe bufuralol
[9] = target: Alpha-1A adrenergic receptor (Homo sapiens, UniProt P35348); experiment: Inhibition of adrenergic alpha 1A receptor (unknown origin) at 0.1 to 1 uM; conditions: dose 0.1-1 µM
hERG (KCNH2) = hERG (KCNH2) (Homo sapiens, UniProt Q12809); experiment: Inhibition of human ERG at 5 uM by patch clamp method relative to control
[10] = target: Muscarinic acetylcholine receptor M1 (Homo sapiens, UniProt P11229); experiment: Inhibition of human muscarinic M1 receptor at 0.1 to 1 uM; conditions: dose 0.1-1 µM
[11] = target: Leukotriene B4 receptor 1 (Homo sapiens, UniProt Q15722); experiment: Inhibition of LTB4 (unknown origin) at 0.1 to 1 uM; conditions: dose 0.1-1 µM
Acetylcholinesterase = Acetylcholinesterase (Homo sapiens, UniProt P22303); experiment: Inhibition of acetylcholinesterase (unknown origin) at 0.1 to 1 uM; conditions: dose 0.1-1 µM
[12] = Toxicity in SCID mouse xenografted with human KATO III stomach cancer cell line assessed as drug tolerance at 0.03 to 1 mg/kg, po administered once daily for 10 days; assay type: organism-based; conditions: in vivo, 240 h, dose 0.03-1 mg/kg, time 10 day
[13] = Half life in Sprague-Dawley rat at 2 mg/kg, po or 1 mg/kg, iv administered as cassette dose measured after 24 hrs; assay type: ADME, organism-based; conditions: in vivo
Adenosine receptor A2a = Adenosine receptor A2a (Homo sapiens, UniProt P29274); experiment: Inhibition of human adenosine A2A receptor at 0.1 to 1 uM; conditions: dose 0.1-1 µM
[14] = target: 5-hydroxytryptamine receptor 1A (Homo sapiens, UniProt P08908); experiment: Inhibition of human 5HT1A receptor at 0.1 to 1 uM; conditions: dose 0.1-1 µM
[15] = Half life in cynomolgus monkey at 2 mg/kg, po or 0.5 mg/kg, iv administered as cassette dose measured after 24 hrs; assay type: ADME, organism-based, Macaca fascicularis; conditions: in vivo
CYP1A2 = CYP1A2 (Homo sapiens, UniProt P05177); experiment: Inhibition of CYP1A2 in human liver microsomes using 7-ethoxyresorufin as substrate substrate in presence of NADPH by LC-MS/MS analysis; assay type: ADME; conditions: human, liver microsomes, probe 7-ethoxyresorufin
[16] = AUC in Sprague-Dawley rat at 2 mg/kg, po or 1 mg/kg, iv administered as cassette dose measured after 24 hrs; assay type: ADME, organism-based; design: time 24 hrs, dose 2 mg/kg; conditions: in vivo
[17] = Inhibition of human adenosine transporter at 0.1 to 1 uM; assay type: ADME; conditions: dose 0.1-1 µM
[18] = Inhibition of Glutamate kainate site receptor (unknown origin) at 0.1 to 1 uM; assay type: ADME; conditions: human, dose 0.1-1 µM
[19] = Inhibition of sodium channel site 2 (unknown origin) at 0.1 to 1 uM; conditions: human, dose 0.1-1 µM
D(3) dopamine receptor = D(3) dopamine receptor (Homo sapiens, UniProt P35462); experiment: Inhibition of dopamine D3 receptor (unknown origin) at 0.1 to 1 uM; conditions: dose 0.1-1 µM
[20] = target: Sodium-dependent serotonin transporter (Homo sapiens, UniProt P31645); experiment: Inhibition of serotonin transporter (unknown origin) at 0.1 to 1 uM; assay type: ADME; conditions: dose 0.1-1 µM
[21] = Inhibition of human PKA at 0.1 to 1 uM; conditions: dose 0.1-1 µM
[22] = AUC in Beagle dog at 2 mg/kg, po measured after 24 hrs; assay type: ADME, organism-based, Canis lupus familiaris; design: route oral, time 24 hrs, dose 2 mg/kg; conditions: in vivo
CYP2C8 = CYP2C8 (Homo sapiens, UniProt P10632); experiment: Inhibition of CYP2C8 in human liver microsomes using amodiaquine as substrate substrate in presence of NADPH by LC-MS/MS analysis; assay type: ADME; conditions: probe amodiaquine
Histamine H1 receptor = Histamine H1 receptor (Homo sapiens, UniProt P35367); experiment: Inhibition of histamine H1 receptor (unknown origin) at 0.1 to 1 uM; conditions: dose 0.1-1 µM
[23] = target: 5-hydroxytryptamine receptor 2C (Homo sapiens, UniProt P28335); experiment: Inhibition of 5HT2C receptor (unknown origin) at 0.1 to 1 uM; conditions: dose 0.1-1 µM
[24] = target: Type-1 angiotensin II receptor (Homo sapiens, UniProt P30556); experiment: Inhibition of human angiotensin 2, AT1 at 0.1 to 1 uM; conditions: dose 0.1-1 µM

Sequence of 5-hydroxytryptamine receptor 4 (Q13639 whole entry): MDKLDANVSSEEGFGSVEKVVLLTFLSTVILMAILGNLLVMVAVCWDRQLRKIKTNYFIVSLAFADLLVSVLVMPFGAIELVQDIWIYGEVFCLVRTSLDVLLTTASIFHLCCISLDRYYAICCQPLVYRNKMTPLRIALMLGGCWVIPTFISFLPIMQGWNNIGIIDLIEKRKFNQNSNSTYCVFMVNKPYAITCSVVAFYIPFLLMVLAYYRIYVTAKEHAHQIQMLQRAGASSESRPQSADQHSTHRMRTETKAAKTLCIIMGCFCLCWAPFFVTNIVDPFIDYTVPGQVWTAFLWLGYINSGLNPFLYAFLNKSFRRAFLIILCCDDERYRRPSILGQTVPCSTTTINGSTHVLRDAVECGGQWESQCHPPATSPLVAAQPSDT
Sequence of Alpha-2C adrenergic receptor (P18825 whole entry): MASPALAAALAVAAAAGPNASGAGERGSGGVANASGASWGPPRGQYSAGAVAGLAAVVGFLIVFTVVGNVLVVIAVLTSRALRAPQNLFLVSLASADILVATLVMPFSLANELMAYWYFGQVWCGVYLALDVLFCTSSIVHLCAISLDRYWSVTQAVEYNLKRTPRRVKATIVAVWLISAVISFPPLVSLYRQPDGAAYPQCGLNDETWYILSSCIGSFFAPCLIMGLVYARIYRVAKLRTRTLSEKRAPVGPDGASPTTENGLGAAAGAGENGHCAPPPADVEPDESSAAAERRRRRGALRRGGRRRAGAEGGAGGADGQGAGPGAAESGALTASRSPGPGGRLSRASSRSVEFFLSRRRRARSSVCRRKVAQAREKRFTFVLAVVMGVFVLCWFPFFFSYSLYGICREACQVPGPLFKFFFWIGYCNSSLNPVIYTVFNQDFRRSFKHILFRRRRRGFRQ
Sequence of D(2) dopamine receptor (P14416 whole entry): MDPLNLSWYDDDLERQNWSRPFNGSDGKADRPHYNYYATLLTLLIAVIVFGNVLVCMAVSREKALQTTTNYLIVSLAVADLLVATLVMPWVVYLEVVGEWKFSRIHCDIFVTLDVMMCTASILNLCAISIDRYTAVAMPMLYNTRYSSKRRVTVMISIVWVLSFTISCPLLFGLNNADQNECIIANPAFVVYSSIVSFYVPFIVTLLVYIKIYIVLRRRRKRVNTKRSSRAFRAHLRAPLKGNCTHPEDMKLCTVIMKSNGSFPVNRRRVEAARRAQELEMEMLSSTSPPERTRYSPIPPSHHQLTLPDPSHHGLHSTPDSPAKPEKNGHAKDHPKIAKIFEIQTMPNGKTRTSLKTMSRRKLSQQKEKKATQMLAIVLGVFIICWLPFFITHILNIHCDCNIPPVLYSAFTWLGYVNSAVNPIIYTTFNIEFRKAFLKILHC
Sequence of Sodium-dependent serotonin transporter (P31645 whole entry): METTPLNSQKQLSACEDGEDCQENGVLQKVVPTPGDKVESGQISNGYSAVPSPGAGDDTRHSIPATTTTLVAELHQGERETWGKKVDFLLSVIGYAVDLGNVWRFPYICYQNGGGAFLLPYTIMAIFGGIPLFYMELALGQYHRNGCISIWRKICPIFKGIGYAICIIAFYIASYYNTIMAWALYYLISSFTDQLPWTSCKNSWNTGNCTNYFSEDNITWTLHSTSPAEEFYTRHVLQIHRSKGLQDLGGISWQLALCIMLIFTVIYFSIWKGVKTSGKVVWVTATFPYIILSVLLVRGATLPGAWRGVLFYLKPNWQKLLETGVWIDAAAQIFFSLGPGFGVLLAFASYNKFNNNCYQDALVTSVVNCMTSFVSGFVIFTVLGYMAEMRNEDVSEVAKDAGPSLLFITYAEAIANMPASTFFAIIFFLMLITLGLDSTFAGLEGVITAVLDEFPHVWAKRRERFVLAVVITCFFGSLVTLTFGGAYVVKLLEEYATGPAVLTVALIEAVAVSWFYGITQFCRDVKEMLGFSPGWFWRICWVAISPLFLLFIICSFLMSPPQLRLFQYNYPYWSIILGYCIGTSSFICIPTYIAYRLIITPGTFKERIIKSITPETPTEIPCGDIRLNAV
Sequence of CYP2C8 (P10632 whole entry): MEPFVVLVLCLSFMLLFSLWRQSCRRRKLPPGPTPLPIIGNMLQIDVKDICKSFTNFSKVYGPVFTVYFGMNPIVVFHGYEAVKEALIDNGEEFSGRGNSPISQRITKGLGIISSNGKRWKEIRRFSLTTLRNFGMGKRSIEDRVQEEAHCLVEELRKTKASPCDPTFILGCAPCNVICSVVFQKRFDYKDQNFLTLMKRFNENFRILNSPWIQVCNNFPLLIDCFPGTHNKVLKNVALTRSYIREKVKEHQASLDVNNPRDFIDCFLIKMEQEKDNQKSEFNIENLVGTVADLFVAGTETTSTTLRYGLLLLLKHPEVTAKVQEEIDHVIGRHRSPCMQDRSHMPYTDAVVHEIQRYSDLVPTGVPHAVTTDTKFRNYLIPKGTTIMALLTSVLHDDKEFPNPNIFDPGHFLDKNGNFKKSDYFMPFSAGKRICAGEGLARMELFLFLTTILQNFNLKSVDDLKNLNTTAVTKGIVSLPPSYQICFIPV
Sequence of Substance-P receptor (P25103 whole entry): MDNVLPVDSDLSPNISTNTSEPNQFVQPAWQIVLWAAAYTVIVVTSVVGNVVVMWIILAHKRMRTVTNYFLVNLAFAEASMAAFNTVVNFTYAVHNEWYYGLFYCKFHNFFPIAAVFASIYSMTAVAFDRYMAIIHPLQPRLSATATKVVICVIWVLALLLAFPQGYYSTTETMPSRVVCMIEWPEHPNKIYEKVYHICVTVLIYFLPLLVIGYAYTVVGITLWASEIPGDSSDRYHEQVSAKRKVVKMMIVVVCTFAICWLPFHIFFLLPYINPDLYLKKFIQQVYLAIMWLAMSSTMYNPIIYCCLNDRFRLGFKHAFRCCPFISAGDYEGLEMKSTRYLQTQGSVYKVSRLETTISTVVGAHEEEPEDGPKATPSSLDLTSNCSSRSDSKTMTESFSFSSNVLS
Sequence of Acetylcholinesterase (P22303 whole entry): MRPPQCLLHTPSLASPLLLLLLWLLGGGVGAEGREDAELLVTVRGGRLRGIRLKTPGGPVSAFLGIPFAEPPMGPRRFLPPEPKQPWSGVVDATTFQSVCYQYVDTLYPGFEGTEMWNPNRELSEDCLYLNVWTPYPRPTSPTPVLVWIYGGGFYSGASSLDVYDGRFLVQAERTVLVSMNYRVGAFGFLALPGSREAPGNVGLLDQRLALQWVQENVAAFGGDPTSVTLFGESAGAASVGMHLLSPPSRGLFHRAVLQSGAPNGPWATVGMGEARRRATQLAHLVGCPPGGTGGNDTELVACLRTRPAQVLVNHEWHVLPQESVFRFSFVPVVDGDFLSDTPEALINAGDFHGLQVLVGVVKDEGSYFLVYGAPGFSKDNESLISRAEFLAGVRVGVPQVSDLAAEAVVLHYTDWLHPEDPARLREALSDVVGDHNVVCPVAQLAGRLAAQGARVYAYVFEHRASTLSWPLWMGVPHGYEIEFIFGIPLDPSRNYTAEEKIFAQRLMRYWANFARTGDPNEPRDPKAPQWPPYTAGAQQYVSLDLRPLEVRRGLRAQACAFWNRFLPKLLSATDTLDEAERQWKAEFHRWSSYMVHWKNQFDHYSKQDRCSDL
Sequence of Neuropeptide Y receptor type 2 (P49146 whole entry): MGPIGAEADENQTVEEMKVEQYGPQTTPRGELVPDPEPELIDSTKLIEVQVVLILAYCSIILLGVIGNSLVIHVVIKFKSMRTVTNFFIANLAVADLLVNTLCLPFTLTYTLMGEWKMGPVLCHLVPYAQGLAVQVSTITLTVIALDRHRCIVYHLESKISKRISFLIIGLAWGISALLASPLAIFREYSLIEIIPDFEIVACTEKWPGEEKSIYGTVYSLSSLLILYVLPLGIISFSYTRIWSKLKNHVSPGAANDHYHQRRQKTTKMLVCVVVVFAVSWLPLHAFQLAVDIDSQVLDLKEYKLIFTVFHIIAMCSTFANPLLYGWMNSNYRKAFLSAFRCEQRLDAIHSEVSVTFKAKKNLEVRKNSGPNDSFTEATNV
Sequence of Adenosine receptor A2a (P29274 whole entry): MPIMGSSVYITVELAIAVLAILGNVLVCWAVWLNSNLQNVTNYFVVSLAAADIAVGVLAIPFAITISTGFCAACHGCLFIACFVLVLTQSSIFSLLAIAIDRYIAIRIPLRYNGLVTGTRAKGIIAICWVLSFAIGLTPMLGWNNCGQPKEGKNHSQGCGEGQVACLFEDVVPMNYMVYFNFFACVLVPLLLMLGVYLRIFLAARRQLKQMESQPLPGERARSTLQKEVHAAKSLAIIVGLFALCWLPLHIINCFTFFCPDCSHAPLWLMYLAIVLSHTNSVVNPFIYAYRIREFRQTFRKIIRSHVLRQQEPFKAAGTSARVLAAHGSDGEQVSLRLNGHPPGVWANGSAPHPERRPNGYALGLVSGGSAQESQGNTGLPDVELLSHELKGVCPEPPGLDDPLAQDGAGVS
Sequence of 5-hydroxytryptamine receptor 1A (P08908 whole entry): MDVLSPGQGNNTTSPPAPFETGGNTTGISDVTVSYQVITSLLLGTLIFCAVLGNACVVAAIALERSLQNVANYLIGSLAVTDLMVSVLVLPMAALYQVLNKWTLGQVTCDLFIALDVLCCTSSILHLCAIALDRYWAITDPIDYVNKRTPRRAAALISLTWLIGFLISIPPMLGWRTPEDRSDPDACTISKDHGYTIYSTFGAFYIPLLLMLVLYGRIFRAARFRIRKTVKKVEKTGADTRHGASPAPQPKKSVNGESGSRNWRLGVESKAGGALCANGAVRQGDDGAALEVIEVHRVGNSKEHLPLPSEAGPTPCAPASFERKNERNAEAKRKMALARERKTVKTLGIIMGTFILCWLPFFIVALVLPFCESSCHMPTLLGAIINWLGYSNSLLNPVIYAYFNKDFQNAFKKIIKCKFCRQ

Structure (SMILES): CCN1C(=O)N(c2c(F)c(OC)cc(OC)c2F)Cc2cnc3[nH]c(CN4CCOCC4)cc3c21 [PEMIGATINIB]
- IC50 (CYP3A4): > 25 µM
- TGI (KATO III): Dose-Dependent Effect
- inhibition (INH) (D(2) dopamine receptor): Not Active
- inhibition (INH) (Mu-type opioid receptor): Not Active
- inhibition (INH) [1]: Not Active
- inhibition (INH) [2]: Not Active
- inhibition (INH) (Thromboxane A2 receptor): Not Active
- Activity [3]: Non-Toxic
- inhibition (INH) (Nitric oxide synthase 1): Not Active
- inhibition (INH) [4]: Not Active
- inhibition (INH) (D(1A) dopamine receptor): Not Active
- inhibition (INH) [5]: Not Active
- inhibition (INH) [6]: Not Active
- inhibition (INH) (Substance-P receptor): Not Active
- inhibition (INH) [7]: Not Active
- inhibition (INH) (Histamine H3 receptor): Not Active
- fraction unbound at 2 h [8]: 0.11
- inhibition (INH) (GABA-B receptor): Not Active
- IC50 (CYP2D6): > 25 µM
- inhibition (INH) [9]: Not Active
- inhibition at 5 µM (hERG (KCNH2)): 9%
- inhibition (INH) [10]: Not Active
- inhibition (INH) [11]: Not Active
- inhibition (INH) (Acetylcholinesterase): Not Active
- Activity [12]: Non-Toxic
- half-life [13]: 4 h
- inhibition (INH) (Adenosine receptor A2a): Not Active
- inhibition (INH) [14]: Not Active
- half-life [15]: 10 h
- IC50 (CYP1A2): > 25 µM
- AUC at 24 h [16]: 7.67 µM·h
- inhibition (INH) [17]: Not Active
- inhibition (INH) [18]: Not Active
- inhibition (INH) [19]: Not Active
- inhibition (INH) (D(3) dopamine receptor): Not Active
- inhibition (INH) [20]: Not Active
- inhibition (INH) [21]: Not Active
- AUC at 24 h [22]: 22.1 µM·h
- IC50 (CYP2C8): > 25 µM
- inhibition (INH) (Histamine H1 receptor): Not Active
- inhibition (INH) [23]: Not Active
- inhibition (INH) [24]: Not Active
